Experimental data reported in US20080004302A1, “Novel Compounds” (ASTRAZENECA AB, priority 2006, published 2008).
Like-named read-outs stand apart in the source and are kept apart here.

How the values were obtained:
[1] = system: Erk phosphorylation; assay: Growth factor (bFGF) stimulated Erk phosphorylation in NIH 3T3 cells; details: Mus musculus, NIH3T3, NIH 3T3 cells, 3 ng/ml bFGF
Source text: These and other assays were used to evaluate the ability of a test compound to inhibit growth factor stimulated cellular signalling in mammalian cell lines. This was achieved by measuring the amount of receptor tyrosine kinase regulated Erk phosphorylation within a cell following compound treatment.
NIH 3T3 (ECACC, 93061524) cells were routinely passaged in DMEM (Gibco BRL, 41966) plus 10% foetal calf serum (FCS), 1% L-glutamine (Gibco BRL, 25030) to a confluence not greater than 80%. To undertake the assay, NIH 3T3's were seeded at 1×10^4 cells/well in DMEM plus 10% foetal calf serum, 1% L-glutamine in 96 well plates (Costar, 3904) and incubated at 37° C. (+5% CO2) in a humidified incubator. Once the cells had fully adhered (typically following 4-5 hours incubation) the media was removed from each well and the cells gently washed with 100μl warm serum free media. 90μl of serum free DMEM plus 1% L-glutamine was then added to each well and the plates were returned to a humidified 37° C. (+5% CO2) incubator. The following day, the plates were dosed with 10[l compound (diluted from 10 mM stock in DMSO using serum free DMEM) and the plates were returned to a humidified 37° C. (+5% CO2) incubator for one hour. NIH 3T3 cells were then stimulated with a final concentration of 3 ng/ml bFGF (Sigma, F029 1) for 20 minutes at 37° C. Following stimulation the cells were fixed by adding formaldehyde (4% v/v final concentration) and incubating at room temperature for 20 minutes. The fixative solution was then removed and the wells were washed twice with 100μl phosphate buffered saline (PBS/A) before permeabilising the cells by the addition of 50 μl/well 0.1% triton/PBS/A for 10 minutes at room temperature. The permeabilisation solution was then removed and the cells washed twice more with 100 μl/well PBS/A before the addition of 50 μl/well anti-phospho p44/42 (Cell Signalling Technology, 9106), diluted 1/500 with PBS/A plus 10% FCS. The anti-phospho p44/42 antibody recognises Erk phosphorylated at threonine 202 and tyrosine 204. […] Finally, the plates were washed three times with 100 μl/well PBS/A, leaving the final wash in the wells before sealing the plates. The plates were read at 350 nm and 488 nm using an Arrayscan (Cellomics).

[2] = molecular target: T1, human IGF1R (Homo sapiens, UniProt P08069); assay: Inhibition of insulin-like growth factor-1 receptor phosphorylation in R+ cells; format: cell-based; details: 30 nM IGF1, read-out: IGF cell class
T1 construct: expressed in transfected cells; host or cells: R+ cells (R- mouse fibroblasts transfected with human IGF1R)
T1 sequence (P08069 31-1367): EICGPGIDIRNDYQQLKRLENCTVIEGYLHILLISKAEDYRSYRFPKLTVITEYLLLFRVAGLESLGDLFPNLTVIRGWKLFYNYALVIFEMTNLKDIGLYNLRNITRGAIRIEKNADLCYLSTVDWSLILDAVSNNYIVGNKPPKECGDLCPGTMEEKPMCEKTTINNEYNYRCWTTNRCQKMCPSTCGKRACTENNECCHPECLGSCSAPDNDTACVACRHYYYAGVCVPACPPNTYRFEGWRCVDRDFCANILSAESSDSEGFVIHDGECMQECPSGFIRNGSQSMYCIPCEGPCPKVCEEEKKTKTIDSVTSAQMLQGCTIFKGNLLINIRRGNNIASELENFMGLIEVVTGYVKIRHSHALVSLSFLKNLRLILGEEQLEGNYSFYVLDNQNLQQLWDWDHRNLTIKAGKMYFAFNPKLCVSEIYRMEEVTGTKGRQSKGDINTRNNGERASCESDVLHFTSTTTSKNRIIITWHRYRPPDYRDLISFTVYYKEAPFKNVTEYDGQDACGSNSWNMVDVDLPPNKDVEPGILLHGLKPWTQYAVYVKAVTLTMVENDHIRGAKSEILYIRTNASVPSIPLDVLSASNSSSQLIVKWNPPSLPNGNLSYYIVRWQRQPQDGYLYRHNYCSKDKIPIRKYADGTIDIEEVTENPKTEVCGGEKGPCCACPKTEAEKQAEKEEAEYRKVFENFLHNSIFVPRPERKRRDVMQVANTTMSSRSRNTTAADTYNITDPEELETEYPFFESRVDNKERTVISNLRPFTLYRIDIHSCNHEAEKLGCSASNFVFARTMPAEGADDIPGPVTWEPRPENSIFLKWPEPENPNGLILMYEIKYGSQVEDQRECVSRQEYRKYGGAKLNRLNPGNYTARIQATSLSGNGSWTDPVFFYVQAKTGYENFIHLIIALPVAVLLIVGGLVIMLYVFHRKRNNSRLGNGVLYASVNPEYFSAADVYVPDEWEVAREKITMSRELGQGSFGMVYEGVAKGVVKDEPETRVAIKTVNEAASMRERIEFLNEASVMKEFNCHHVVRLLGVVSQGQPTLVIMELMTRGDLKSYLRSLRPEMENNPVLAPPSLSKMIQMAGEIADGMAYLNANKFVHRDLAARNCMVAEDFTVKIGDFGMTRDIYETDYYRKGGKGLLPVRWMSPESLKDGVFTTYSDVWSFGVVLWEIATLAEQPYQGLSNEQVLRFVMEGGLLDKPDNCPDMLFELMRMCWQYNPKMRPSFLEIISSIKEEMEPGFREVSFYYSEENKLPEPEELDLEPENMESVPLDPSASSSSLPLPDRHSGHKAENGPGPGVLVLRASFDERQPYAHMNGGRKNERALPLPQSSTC

[3] = molecular target: T2, FGFR kinase domain (Homo sapiens, UniProt P11362, C488A/C584S); assay: Kinase assay (ELISA) for inhibition of FGFR activity; format: biochemical
T2 construct: FGFR kinase domain (amino acids 458-765, C488A, C584S) N-terminally fused to a His6-tag; made in house
T2 sequence (P11362 458-765 C488A/C584S): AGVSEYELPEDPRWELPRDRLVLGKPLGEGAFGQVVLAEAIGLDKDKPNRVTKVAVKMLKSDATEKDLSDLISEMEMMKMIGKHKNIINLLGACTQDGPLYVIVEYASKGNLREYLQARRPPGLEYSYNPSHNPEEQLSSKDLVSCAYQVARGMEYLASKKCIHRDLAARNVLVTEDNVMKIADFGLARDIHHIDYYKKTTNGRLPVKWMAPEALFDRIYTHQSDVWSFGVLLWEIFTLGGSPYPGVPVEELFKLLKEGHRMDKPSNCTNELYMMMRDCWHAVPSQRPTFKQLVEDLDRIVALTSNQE
Procedure: To determine inhibition of FGFR activity, kinase assays were conducted using ELISA (Enzyme-Linked Immunosorbent Assay) technology.
Kinase activity assays were performed in 384-well polypropylene plates (Matrix, 4311) with a total volume of 40 μl in each well. Each well was coated with 2 μg of polyEAY substrate (Sigma, P3899) at 4° C. overnight. The plates were then washed once with 100 μl PBS and once with 100 μl 50 mM HEPES (pH 7.4) prior to the addition of the kinase assay reagents. […] Various concentrations of test compounds were each added in 5% (v/v) DMSO to yield a final assay DMSO concentration of 1.25% (v/v). The kinase reactions were incubated at room temperature for 45 minutes and stopped by washing the plate three times with 100 μl PBS plus 0.05% Tween. […] Following this, the plates were then washed repeatedly with 100 μl PBS plus 0.05% Tween to remove all traces of the antibody solution. 40 μl of 50 μg/ml 3,3′,5,5′-Tetramethylbenzidine (Sigma, T2885), 0.05M phosphate-citrate buffer, containing 0.03% sodium perborate was added to each well and the plates incubated at room temperature for twelve minutes. The colour reaction was stopped by the addition of 20 μl 2M H2SO4 and the plates read at 450 nm on a Spectrafluor Plus (Tecan).

[4] = molecular target: T3, FGFR1 IIIc (Homo sapiens, UniProt P11362); assay: Cell based inhibition of transiently expressed FGFR1 IIIc phosphorylation (Cos-1 cells); details: Cos-1 cells, phospho-FGFR1; upper bound of bin; read-out: IC50
T3 construct: host or cells: Cos-1
T3 sequence (P11362 22-822): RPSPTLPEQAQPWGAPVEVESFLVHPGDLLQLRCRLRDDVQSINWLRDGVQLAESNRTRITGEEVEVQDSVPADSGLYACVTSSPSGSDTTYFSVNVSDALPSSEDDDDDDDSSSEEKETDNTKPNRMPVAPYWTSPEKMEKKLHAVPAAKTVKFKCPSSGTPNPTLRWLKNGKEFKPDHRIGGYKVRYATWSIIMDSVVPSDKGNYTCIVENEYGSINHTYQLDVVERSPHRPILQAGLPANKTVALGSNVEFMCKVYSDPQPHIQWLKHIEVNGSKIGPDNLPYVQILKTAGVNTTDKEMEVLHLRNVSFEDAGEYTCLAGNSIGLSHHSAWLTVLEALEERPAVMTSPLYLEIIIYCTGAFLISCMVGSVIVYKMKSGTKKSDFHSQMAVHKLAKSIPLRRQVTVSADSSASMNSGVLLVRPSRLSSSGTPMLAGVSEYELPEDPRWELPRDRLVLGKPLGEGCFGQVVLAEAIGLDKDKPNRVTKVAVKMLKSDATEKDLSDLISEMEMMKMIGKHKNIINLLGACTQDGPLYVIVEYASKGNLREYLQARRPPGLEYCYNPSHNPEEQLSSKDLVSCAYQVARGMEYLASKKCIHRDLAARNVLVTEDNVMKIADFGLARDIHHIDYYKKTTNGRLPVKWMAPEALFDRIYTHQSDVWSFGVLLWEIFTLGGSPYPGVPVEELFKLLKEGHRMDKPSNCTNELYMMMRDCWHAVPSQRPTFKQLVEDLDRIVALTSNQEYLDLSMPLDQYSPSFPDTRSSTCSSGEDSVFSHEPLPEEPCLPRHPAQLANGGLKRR

[5] = molecular target: T3, FGFR1 IIIc; assay: Cell based inhibition of transiently expressed FGFR1 IIIc phosphorylation via use of ECHO technology (Cos-1 cells)
[6] = molecular target: FGFR1 kinase (Homo sapiens, UniProt P11362); assay: Kinase assay (using Caliper technology); format: biochemical; details: FGFR1 kinase, Caliper; upper bound of bin; read-out: IC50
Sequence of FGFR1 kinase (P11362 22-822): as above
Method in brief: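 Human FGFR1 kinase activity measured with a 13-mer fluorescently tagged FGFR1-specific peptide substrate; compounds serially diluted in 5% (v/v) DMSO. Reactions ran 1.5 h at room temperature, stopped with EDTA-containing HEPES pH 7.5 buffer. Phosphorylated and unphosphorylated peptide separated by microfluidic mobility shift.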

[7] = FGFR inhibition tests, ELISA kinase assay, read-out: Activity class
[8] = Cos-1 cells, phospho-FGFR1, ECHO dosing, upper bound of bin, read-out: IC50

Row | SMILES | IC50 [2] | IC50 [3, 7] | IC50 [5, 8] | IC50 [6] | also measured
1 | Cc1cc(Nc2ccnc(NCc3cc(C(N)=O)no3)n2)[nH]n1 [Example 4, 5-[[[4-[(5-methyl-2H-pyrazol-3-yl)amino]pyrimidin-2-yl]amino]methyl]isoxazole-3-carboxamide] | > 10000 nM | – | – | – | IC50 ([3]; Activity class): 100 to 1000 nM; IC50 [5]: < 10000 nM
2 | CCOCCCc1cc(Nc2ccnc(NCc3cc(C)no3)n2)n[nH]1 [Example 20, N′-[5-(3-ethoxypropyl)-2H-pyrazol-3-yl]-N-[(3-methyl-1,2-oxazol-5-yl)methyl]pyrimidine-2,4-diamine] | – | 100 to 1000 nM | < 10000 nM | – | –
3 | CCOCCCc1cc(Nc2ccnc(NCc3cc(C(N)=O)no3)n2)[nH]n1 [Example 22, 5-[[[4-[[5-(3-ethoxypropyl)-2H-pyrazol-3-yl]amino]pyrimidin-2-yl]amino]methyl]-1,2-oxazole-3-carboxamide] | – | 100 to 1000 nM | < 30000 nM | – | –
4 | COc1ccc(CCc2cc(Nc3ccnc(NCc4cc(C)no4)n3)n[nH]2)cc1 [Example 24, N′-[5-[2-(4-methoxyphenyl)ethyl]-2H-pyrazol-3-yl]-N-[(3-methyl-1,2-oxazol-5-yl)methyl]pyrimidine-2,4-diamine] | > 10000 nM | 100 to 1000 nM | – | < 1000 nM | IC50 [4]: < 1000 nM
5 | COc1ccc(CCc2cc(Nc3ccnc(NCc4cc(C5CC5)no4)n3)n[nH]2)cc1 [Example 25, N-[(3-cyclopropyl-1,2-oxazol-5-yl)methyl]-N′-[5-[2-(4-methoxyphenyl)ethyl]-2H-pyrazol-3-yl]pyrimidine-2,4-diamine] | – | 100 to 1000 nM | < 200 nM | < 1000 nM | –
6 | COc1ccc(CCc2cc(Nc3ccnc(NCc4cc(C(N)=O)no4)n3)[nH]n2)cc1 [Example 26, 5-[[[4-[[5-[2-(4-methoxyphenyl)ethyl]-2H-pyrazol-3-yl]amino]pyrimidin-2-yl]amino]methyl]-1,2-oxazole-3-carboxamide] | – | 100 to 1000 nM | < 10000 nM | < 1000 nM | –
7 | COc1cccc(CCc2cc(Nc3ccnc(NCc4cc(C5CC5)no4)n3)n[nH]2)c1 [Example 28, N-[(3-cyclopropyl-1,2-oxazol-5-yl)methyl]-N′-[5-[2-(3-methoxyphenyl)ethyl]-2H-pyrazol-3-yl]pyrimidine-2,4-diamine] | – | 100 to 1000 nM | < 200 nM | < 200 nM | IC50 [4]: < 200 nM
8 | COc1cccc(CCc2cc(Nc3ccnc(NCc4cc(-c5ncccn5)no4)n3)[nH]n2)c1 [Example 33, N′-[5-[2-(3-methoxyphenyl)ethyl]-2H-pyrazol-3-yl]-N-[(3-pyrimidin-2-yl1,2-oxazol-5-yl)methyl]pyrimidine-2,4-diamine] | > 10000 nM | – | – | < 200 nM | IC50 [1]: 518 nM; IC50 ([1]; upper bound of bin): < 1000 nM; IC50 ([3]; stated after the ELISA results table, read-out: IC50): 92 nM
9 | CC(C)Oc1cc(Nc2ccnc(NCc3cc(C4CC4)no3)n2)n[nH]1 [Example 67, N-[(3-cyclopropyl-1,2-oxazol-5-yl)methyl]-N′-(5-propan-2-yloxy-2H-pyrazol-3-yl)pyrimidine-2,4-diamine] | 1000 to 10000 nM | < 100 nM | < 200 nM | < 200 nM | IC50 [1]: < 200 nM; IC50 [4]: < 200 nM
10 | Cc1cc(CNc2nc(C)cc(Nc3cc(OC(C)C)[nH]n3)n2)on1 [Example 68, 6-methyl-N-[(3-methyl-1,2-oxazol-5-yl)methyl]-N′-(5-propan-2-yloxy-1H-pyrazol-3-yl)pyrimidine-2,4-diamine] | > 10000 nM | < 100 nM | < 200 nM | < 200 nM | –
11 | Cc1cc(Nc2cc(OC(C)C)[nH]n2)nc(NCc2cc(C3CC3)no2)n1 [Example 69, N-[(3-cyclopropyl-1,2-oxazol-5-yl)methyl]-6-methyl-N′-(5-propan-2-yloxy-2H-pyrazol-3-yl)pyrimidine-2,4-diamine] | – | < 100 nM | < 200 nM | < 200 nM | –
12 | COc1cc(Nc2cc(OC(C)C)n[nH]2)nc(NCc2cc(C)no2)n1 [Example 70, 6-methoxy-N-[(3-methyl-1,2-oxazol-5-yl)methyl]-N′-(5-propan-2-yloxy-2H-pyrazol-3-yl)pyrimidine-2,4-diamine] | > 10000 nM | < 100 nM | < 200 nM | < 200 nM | –
13 | COc1cc(Nc2cc(OC(C)C)[nH]n2)nc(NCc2cc(C3CC3)no2)n1 [Example 71, N-[(3-cyclopropyl-1,2-oxazol-5-yl)methyl]-6-methoxy-N′-(5-propan-2-yloxy-2H-pyrazol-3-yl)pyrimidine-2,4-diamine] | – | < 100 nM | < 200 nM | < 200 nM | –
14 | Cc1cc(CNc2nccc(Nc3cc(OCc4ccccc4)[nH]n3)n2)on1 [Example 72, N-[(3-methyl-1,2-oxazol-5-yl)methyl]-N′-(5-phenylmethoxy-1H-pyrazol-3-yl)pyrimidine-2,4-diamine] | – | 100 to 1000 nM | – | – | IC50 ([1]; upper bound of bin): < 1000 nM

Continued, in another order:

Row | IC50 [2] | IC50 [3, 7] | IC50 [5, 8] | IC50 [6] | SMILES | also measured
15 | 1000 to 10000 nM | < 100 nM | < 1000 nM | – | Cc1cc(Nc2ccnc(NCc3cc(C4CC4)no3)n2)n[nH]1 [Example 3, N-[(3-cyclopropylisoxazol-5-yl)methyl]-N ′-(5-methyl-2H-pyrazol-3-yl)pyrimidine-2,4-diamine] | IC50 [1]: < 200 nM; IC50 [4]: < 1000 nM
16 | 100 to 1000 nM | < 100 nM | < 200 nM | – | CCCc1cc(Nc2ccnc(NCc3cc(C)no3)n2)n[nH]1 [Example 6, N-[(3-methylisoxazol-5-yl)methyl]-N ′-(5-propyl-2H-pyrazol-3-yl)pyrimidine-2,4-diamine] | –
17 | – | < 100 nM | < 200 nM | – | CCCc1cc(Nc2ccnc(NCc3cc(C4CC4)no3)n2)n[nH]1 [Example 7, N-[(3-cyclopropyl-1,2-oxazol-5-yl)methyl]-N′-(5-propyl-2H-pyrazol-3-yl)pyrimidine-2,4-diamine] | –
18 | – | < 100 nM | < 1000 nM | – | CCCc1cc(Nc2ccnc(NCc3cc(C(N)=O)no3)n2)n[nH]1 [Example 8, 5-[[[4-[(5-propyl-1H-pyrazol-3-yl)amino]pyrimidin-2-yl]amino]methyl]-1,2-oxazole-3-carboxamide] | –
19 | 100 to 1000 nM | < 100 nM | < 200 nM | – | c1cc(Nc2cc(C3CC3)[nH]n2)nc(NCc2cc(C3CC3)no2)n1 [Example 10, N-[(3-cyclopropyl-1,2-oxazol-5-yl)methyl]-N′-(5-cyclopropyl-2H-pyrazol-3-yl)pyrimidine-2,4-diamine] | –
20 | 1000 to 10000 nM | < 100 nM | < 1000 nM | – | NC(=O)c1cc(CNc2nccc(Nc3cc(C4CC4)n[nH]3)n2)on1 [Example 11, 5-[[[4-[(5-cyclopropyl-2H-pyrazol-3-yl)amino]pyrimidin-2-yl]amino]methyl]-1,2-oxazole-3-carboxamide] | –
21 | – | < 100 nM | < 1000 nM | – | CCOCCCc1cc(Nc2ccnc(NCc3cc(C4CC4)no3)n2)[nH]n1 [Example 21, N-[(3-cyclopropyl-1,2-oxazol-5-yl)methyl]-N′-[5-(3-ethoxypropyl)-2H-pyrazol-3-yl]pyrimidine-2,4-diamine] | –
22 | > 10000 nM | < 100 nM | – | < 200 nM | COc1cccc(CCc2cc(Nc3ccnc(NCc4cc(C)no4)n3)n[nH]2)c1 [Example 27, N′-[5-[2-(3-methoxyphenyl)ethyl]-2H-pyrazol-3-yl]-N-[(3-methyl-1,2-oxazol-5-yl)methyl]pyrimidine-2,4-diamine] | IC50 [4]: < 200 nM
23 | > 10000 nM | < 100 nM | – | < 200 nM | COc1cccc(CCc2cc(Nc3ccnc(NCc4cc(C(N)=O)no4)n3)[nH]n2)c1 [Example 29, 5-[[[4-[[5-[2-(3-methoxyphenyl)ethyl]-2H-pyrazol-3-yl]amino]pyrimidin-2-yl]amino]methyl]-1,2-oxazole-3-carboxamide] | IC50 [4]: < 10000 nM
24 | > 10000 nM | < 100 nM | < 1000 nM | < 200 nM | Cc1cc(CNc2nccc(Nc3cc(OC(C)C)[nH]n3)n2)on1 [Example 66, N-[(3-methyl-1,2-oxazol-5-yl)methyl]-N′-(5-propan-2-yloxy-2H-pyrazol-3-yl)pyrimidine-2,4-diamine] | IC50 [1]: < 200 nM; IC50 [4]: < 1000 nM
